As usually defined, the IC50 is the concentration that inhibits the measured activity by half.

The text below walks through data of patent publication US7524849B2, “5-arylpyrimidines as anticancer agents” (Wyeth Holdings Corporation, priority 2003, dated 2009).

This assay has as its system COLO 205 cells. The assay can be described thus: MTS cytotoxicity test with COLO 205 cells. The class given is cell-based, human. Conditions: three days with compound. The protocol:
The assay, which is sold in kit form by Promega (Madison, Wis.; CellTiter 96 AQueous Non-Radioactive Cell Proliferation Assay), is based on the conversion by viable cells, but not by dead cells, of the tetrazolium salt, MTS (3-(4,5-dimethylthiazol-2-yl)-5-(3-carboxymethoxyphenyl)-2-(4-sulphophenyl)-2H-tetrazolium, inner salt), into a water-soluble colored formazan which is detected by spectrophotometry. Compounds are tested at nine concentrations, in order to determine IC50 values. For the test procedure, cells are harvested by trypsinization, washed, counted and distributed to wells of 96-well flat-bottom microtiter plates at 1000 cells per well in 200 μL of medium. In addition, one row of wells on a separate plate receives cells as above (“time 0” plate). All plates are incubated at 37° in humidified 5% CO2 in air for about 24 hr.
On day 2, compounds for test are diluted and added to wells. Compounds are dissolved in DMSO at 10 mg/mL. For each compound, nine serial 2-fold dilutions are prepared in DMSO. Ten μL of each dilution in DMSO are transferred to 100 μL of medium, mixed well, and then 5 μL of this dilution are transferred in quadruplicate to wells containing cells. The final high concentration of each compound is typically 5 μM. Plates are returned to the incubator for three days. At the time of drug addition to the experimental plates, the MTS assay is run on the “time 0” plate. This produces the “time 0 MTS value” which is related to the number of viable cells per well at the time of drug addition.
After three days of culture with test compounds (day 5 overall), the MTS assay is done on all wells of the experimental plates. The absorbance values of the quadruplicate sample wells are averaged and divided by the average of the “time 0” values. The average of control wells without drug, divided by the average “time 0” value, gives the maximal relative increase in MTS color yield due to cell growth during the final three days of culture. The average of control wells with high drug concentration, divided by the “time 0” value, gives the minimal relative color yield for cells that were completely killed. The nine values for each compound are plotted against concentration, and the concentration that produces a relative color yield half way between the maximum and minimum is taken as the IC50 value.
COLO 205 is a human colon carcinoma cell line that is used for comparative testing of the examples of this invention and several reference compounds. This line is sensitive to paclitaxel and vincristine.
In general terms: Formazan colour is commonly taken as a measure of viable cells.

As for “4-Chloro-6-[(2,2,2-trifluoroethyl)amino]-5-(2,4,6-trifluorophenyl)pyrimidin-2-yl]ethylcyanamide [Example 2]”, the IC50 was determined as 304 nM.

In the case of `C[C@H](Nc1nc(-c2cnccn2)nc(Cl)c1-c1c(F)cc(F)cc1F)C(F)(F)F` [Example 3, 6-Chloro-2-pyrazin-2-yl-N-[(1S)-2,2,2-trifluoro-1-methylethyl]-5-(2,4,6-trifluorophenyl)pyrimidin-4-amine], the IC50 (Homo sapiens, 72 h) was found to be 51 nM.

Take `Fc1cc(F)c(-c2c(Cl)nc(-c3cnccn3)nc2NCC(F)(F)F)c(F)c1` [Example 4, 6-Chloro-2-pyrazin-2-yl-N-(2,2,2-trifluoroethyl)-5-(2,4,6-trifluorophenyl)pyrimidin-4-amine]: the IC50 (Homo sapiens, 72 h) was found to be 84 nM.

Regarding `Fc1cc(F)c(-c2c(Cl)nc(-c3ncccn3)nc2NCC(F)(F)F)c(F)c1` [Example 5, 6-Chloro-N-(2,2,2-trifluoroethyl)-5-(2,4,6-trifluorophenyl)-2,2′-bipyrimidin-4-amine], the IC50 (Homo sapiens, 72 h) stood at 265 nM.

Consider `Fc1cc(F)c(-c2c(Cl)nc(-c3ccncc3)nc2NCC(F)(F)F)c(F)c1` [Example 6, 6-Chloro-2-pyridin-4-yl-N-(2,2,2-trifluoroethyl)-5-(2,4,6-trifluorophenyl)pyrimidin-4-amine], for which the IC50 (Homo sapiens, 72 h) amounted to 7050 nM.

As to `Fc1cc(F)c(-c2c(Cl)nc(-c3cccnc3)nc2NCC(F)(F)F)c(F)c1` [Example 7, 6-Chloro-2-pyridin-3-yl-N-(2,2,2-trifluoroethyl)-5-(2,4,6-trifluorophenyl)pyrimidin-4-amine], the IC50 (Homo sapiens, 72 h) was 3930 nM.

With `Fc1cc(F)c(-c2c(Cl)nc(-c3ccccn3)nc2NCC(F)(F)F)c(F)c1` [Example 8, 6-Chloro-2-pyridin-2-yl-N-(2,2,2-trifluoroethyl)-5-(2,4,6-trifluorophenyl)pyrimidin-4-amine], under “Homo sapiens, 72 h”, the IC50 came to 39 nM.

Take `C[C@H](Nc1nc(-c2ccccn2)nc(Cl)c1-c1c(F)cc(F)cc1F)C(F)(F)F` [Example 9, 6-Chloro-2-pyridin-2-yl-N-[(1S)-2,2,2-trifluoro-1-methylethyl]-5-(2,4,6-trifluorophenyl)pyrimidin-4-amine]: for the setting “Homo sapiens, 72 h”, the IC50 is 29 nM.

In the case of `Fc1cc(F)c(-c2c(Cl)nc(-c3ccc4ccccc4n3)nc2NCC(F)(F)F)c(F)c1` [Example 10, 6-Chloro-2-quinolin-2-yl-N-(2,2,2-trifluoroethyl)-5-(2,4,6-trifluorophenyl)pyrimidin-4-amine], where the note is “Homo sapiens, 72 h”, the IC50 stood at 250 nM.

In the case of `Fc1cc(F)c(-c2c(Cl)nc(-c3nccc4ccccc34)nc2NCC(F)(F)F)c(F)c1` [Example 11, 6-Chloro-2-isoquinolin-1-yl-N-(2,2,2-trifluoroethyl)-5-(2,4,6-trifluorophenyl)pyrimidin-4-amine], the IC50 (Homo sapiens, 72 h) was determined as 4680 nM.

On to `Fc1cc(F)c(-c2c(Cl)nc(-c3cc4ccccc4cn3)nc2NCC(F)(F)F)c(F)c1` [Example 12, 6-Chloro-2-isoquinolin-3-yl-N-(2,2,2-trifluoroethyl)-5-(2,4,6-trifluorophenyl)pyrimidin-4-amine], for which, under “Homo sapiens, 72 h”, the IC50 is 119 nM.

As for `Fc1cc(F)c(-c2c(Cl)nc(-c3cccs3)nc2NCC(F)(F)F)c(F)c1` [Example 13, 6-Chloro-2-thien-2-yl-N-(2,2,2-trifluoroethyl)-5-(2,4,6-trifluorophenyl)pyrimidin-4-amine], the IC50 (Homo sapiens, 72 h) came to 3460 nM.

Consider `Fc1cc(F)c(-c2c(Cl)nc(-c3ccco3)nc2NCC(F)(F)F)c(F)c1` [Example 14, 6-Chloro-2-(2-furyl)-N-(2,2,2-trifluoroethyl)-5-(2,4,6-trifluorophenyl)pyrimidin-4-amine], for which the IC50 (Homo sapiens, 72 h) amounted to 232 nM.

In the case of `Fc1cc(F)c(-c2c(Cl)nc(-n3cccn3)nc2NCC(F)(F)F)c(F)c1` [Example 16, 6-Chloro-2-(1H-pyrazol-1-yl)-N-(2,2,2-trifluoroethyl)-5-(2,4,6-trifluorophenyl)pyrimidin-4-amine], the IC50 (Homo sapiens, 72 h) came out at 53 nM.

In the case of `C[C@H](Nc1nc(-n2cccn2)nc(Cl)c1-c1c(F)cc(F)cc1F)C(F)(F)F` [Example 17, 6-Chloro-2-(1H-pyrazol-1-yl)-N-[(1S)-2,2,2-trifluoro-1-methylethyl)-5-(2,4,6-trifluorophenyl)pyrimidin-4-amine], the IC50 (Homo sapiens, 72 h) is 19 nM.

`Fc1cc(F)c(-c2c(Cl)nc(-n3cccc3)nc2NCC(F)(F)F)c(F)c1` [Example 18, 6-Chloro-2-(1H-pyrrol-1-yl)-N-(2,2,2-trifluoroethyl)-5-(2,4,6-trifluorophenyl)pyrimidin-4-amine]: the IC50 (Homo sapiens, 72 h) is 7080 nM.

Regarding `CN(C)CCOc1cc(F)c(-c2c(Cl)nc(N(C)C#N)nc2NCC(F)(F)F)c(F)c1` [Example 22, 4-Chloro-5-{4-[2-(dimethylamino)ethoxy]-2,6-difluorophenyl}-6-[(2,2,2-trifluoroethyl)amino]pyrimidin-2-yl(methyl)cyanamide], the IC50 (Homo sapiens, 72 h) was 532 nM.

Regarding `CNCCCOc1cc(F)c(-c2c(Cl)nc(-c3cnccn3)nc2N[C@@H](C)C(F)(F)F)c(F)c1` [Example 24, 6-Chloro-5-{2,6-difluoro-4-[3-(methylamino)propoxy]phenyl}-2-pyrazin-2-yl-N-[(1S)-2,2,2-trifluoro-1-methylethyl]pyrimidin-4-amine], the IC50 (Homo sapiens, 72 h) stood at 6.9 nM.

In the case of `CN(C)CCCOc1cc(F)c(-c2c(Cl)nc(-c3cnccn3)nc2NCC(F)(F)F)c(F)c1` [Example 25, 6-Chloro-5-{4-[3-(dimethylamino)propoxy]-2,6-difluorophenyl}-2-pyrazin-2-yl-N-(2,2,2-trifluoroethyl)pyrimidin-4-amine], the IC50 (Homo sapiens, 72 h) worked out at 22 nM.

`CN(C)CCCOc1cc(F)c(-c2c(Cl)nc(-c3ncccn3)nc2NCC(F)(F)F)c(F)c1` [Example 26, 6-Chloro-5-{4-[3-(dimethylamino)propoxy]-2,6-difluorophenyl}-N-(2,2,2-trifluoroethyl)-2,2′-bipyrimidin-4-amine]: the IC50 (Homo sapiens, 72 h) is 49 nM.

Regarding `CN(C)CCOc1cc(F)c(-c2c(Cl)nc(-c3cnccn3)nc2NCC(F)(F)F)c(F)c1` [Example 27, 6-Chloro-5-{4-[2-(dimethylamino)ethoxy]-2,6-difluorophenyl}-2-pyrazin-2-yl-N-(2,2,2-trifluoroethyl)pyrimidin-4-amine], the IC50 (Homo sapiens, 72 h) stood at 128 nM.

Turning to `CN(C)CCCCOc1cc(F)c(-c2c(Cl)nc(-c3cnccn3)nc2NCC(F)(F)F)c(F)c1` [Example 28, 6-Chloro-5-{4-[4-(dimethylamino)butoxy]-2,6-difluorophenyl}-2-pyrazin-2-yl-N-(2,2,2-trifluoroethyl)pyrimidin-4-amine], under “Homo sapiens, 72 h”, the IC50 worked out at 32 nM.

Take `Cn1ccnc1-c1nc(Cl)c(-c2c(F)cc(F)cc2F)c(NCC(F)(F)F)n1` [Example 34, 6-Chloro-2-(1-methyl-1H-imidazol-2-yl)-N-(2,2,2-trifluoroethyl)-5-(2,4,6-trifluorophenyl)pyrimidin-4-amine]: the IC50 (Homo sapiens, 72 h) is 77 nM.

As to `Fc1cc(F)c(-c2c(Cl)nc(-c3ccc[nH]3)nc2NCC(F)(F)F)c(F)c1` [Example 35, 6-Chloro-2-(1H-pyrrol-2-yl)-N-(2,2,2-trifluoroethyl)-5-(2,4,6-trifluorophenyl)pyrimidin-4-amine], for the setting “Homo sapiens, 72 h”, the IC50 is 7030 nM.

For the molecule `Cc1ccnc(-c2nc(Cl)c(-c3c(F)cc(F)cc3F)c(NCC(F)(F)F)n2)c1` [Example 36, 6-Chloro-2-(4-methylpyridin-2-yl)-N-(2,2,2-trifluoroethyl)-5-(2,4,6-trifluorophenyl)pyrimidin-4-amine], the IC50 (Homo sapiens, 72 h) amounted to 109 nM.

For `O=[N+]([O-])c1ccc(-c2nc(Cl)c(-c3c(F)cc(F)cc3F)c(NCC(F)(F)F)n2)nc1` [Example 37, 6-Chloro-2-(5-nitropyridin-2-yl)-N-(2,2,2-trifluoroethyl)-5-(2,4,6-trifluorophenyl)pyrimidin-4-amine], the IC50 (Homo sapiens, 72 h) came to 132 nM.

As for `CN(C)CCCOc1cc(F)c(-c2c(Cl)nc(-c3ccc(N=[N+]=[N-])cn3)nc2NCC(F)(F)F)c(F)c1` [Example 38, 2-(5-Azidopyridin-2-yl)-6-chloro-5-{4-[3-(dimethylamino)propoxy]-2,6-difluorophenyl}-N-(2,2,2-trifluoroethyl)pyrimidin-4-amine], the IC50 (Homo sapiens, 72 h) worked out at 23 nM.
